The test has as its system CFTR-Y122X. In words: CFTR-Y122X assay (dual reporter isogenic Hek293 cell lines, Renilla luminescence readthrough). In kind it is cell-based. The settings on record: Homo sapiens, HEK293; for Emax / AC50: nonsense mutation suppression, 24 h incubation; for Emax: 100% = 14 mM paromomycin, tested up to 100 μM, read-out: Amax [%]; for Emax at 25 µM: measured at 25 μM compound concentration (footnote a), read-out: Amax [%]: % nonsense mutation suppression relative to paromomycin reference activity. The text has this:
Activity of compounds of the present invention was examined in recombinant, dual reporter isogenic Hek293 cell lines (“CFTR-Y122X assay”). The engineered reporter constructs contained the 18 bp sequence stretch corresponding to a common Y122X PTC mutation in CFTR class I mutant patients (see Sermet-Gaudelus, BMC Medicine, 2007, 5(5)). Instead of a tyrosine (Y) in position 122 of the CFTR protein a TGA stop codon interrupts the open reading frame (Y122X) of the corresponding mRNA. This TGA stop codon triplet (followed by the pyrimidine base cytosine) is permissive to aminoglycoside mediated translational readthrough which served as positive control for high throughput screening. A corresponding TAA stop codon variant and a wildtype non mutated construct was used for confirmation and counter screening. The CFTR sequence was sandwiched between an eGFP reporter, and a triple myc tag sequence fused to a full length Renilla reporter. All sequences, including an intron containing one positioned pre-eGFP (b-globin intron) were cloned in frame. The corresponding expression constructs were stably expressed in the isogenic HEK-R4 cell host (Invitrogen Incorp.) and selected by blasticidin resistance. The isogenic integration of the construct minimizes gene dose effects and improves assay reproducibility. Stably integrated single cell derived clones were selected and characterized for aminoglycoside mediated readthrough. […] Readthrough of Y122X accumulates an intracellular localized fusion protein approximately 65.5 kDa in size as controlled by western blot analysis and immunofluorescence using an anti-renilla antibody. The eGFP reporter pre-PTC mutation serves as visual control for genetic stability of the screening clones and minimizes protein degradation of small fusion protein amounts. In the assay, compound concentration was 10 μM. In miniaturized 1536 well format 2000 cells were dispensed in 4 μl/well and incubated for 24 h at 37° C., 5% CO2. 40 nl compounds were placed on the cells with control wells containing 1 ul Paramomycin and 14.4 mM final concentration. Compounds were incubated for 24 h. Renilla Glo substrate (2.5 ul) was added and plates were centrifuged and processed for luminescence measurement using various readers. Activity calculation was done using the equation: A1 (%)=100*(S−NC)/(AC−NC) where AC, NC and S correspond to active controls (injection of Stimulation buffer=100% stimulation), neutral controls (buffer injection which Iloprost EC10) and screening samples (S). NC corresponds to 0% activity whereas AC is 100% activity (14 mM paromomycin). False positive artefacts were removed in confirmation and validation screening using the same assay format followed by counterscreening using the respective wildtype construct (w/o PTC mutation) cell model. Compounds were tested up to 100 μM compound concentration.

The source of these data is US9649314B2, “Pyrimido[4,5-b]quinoline-4,5(3H,10H)-diones” (NOVARTIS AG, priority 2012, dated 2017).

Take `COCCn1c2ccccc2c(=O)c2c(=O)n(-c3ccccc3)c(C(C)C)nc21` [Example 1.43, 2-isopropyl-10-(2-methoxyethyl)-3-phenylpyrimido[4,5-b]quinoline-4,5(3H,10H)-dione]: the Emax is 9%.
`CCCn1c2ccccc2c(=O)c2c(=O)n(-c3ccccc3)c(C(C)C)nc21` [Example 1.44, 2-isopropyl-3-phenyl-10-propylpyrimido[4,5-b]quinoline-4,5(3H,10H)-dione]: the Emax was found to be 118% and the concentration at half-maximal activity (AC50) stood at 15.2 µM.
The corresponding values for `CC(C)c1nc2c(c(=O)c3ccccc3n2C)c(=O)n1C1CCCOC1` (stereo not shown) [Example 1.45, 2-isopropyl-10-methyl-3-(tetrahydro-2H-pyran-3-yl)pyrimido[4,5-b]quinoline-4,5(3H,10H)-dione] are 389% and 4.7 µM.
In the case of `Cn1c2ccccc2c(=O)c2c(=O)n(-c3c(Cl)cccc3Cl)c(C3CCC3)nc21` [Example 1.46, 2-cyclobutyl-3-(2,6-dichlorophenyl)-10-methylpyrimido[4,5-b]quinoline-4,5(3H,10H)-dione], the Emax was 25%.
In the case of `CCCCCCc1nc2c(c(=O)c3ccccc3n2C)c(=O)n1-c1ccccc1` [Example 1.47, 2-hexyl-10-methyl-3-phenylpyrimido[4,5-b]quinoline-4,5(3H,10H)-dione], the Emax is 210% and the half-maximal activity concentration (AC50) was determined as 11.3 µM.
On to `CCCCCCCc1nc2c(c(=O)c3ccccc3n2C)c(=O)n1-c1ccccc1` [Example 1.48, 2-heptyl-10-methyl-3-phenylpyrimido[4,5-b]quinoline-4,5(3H,10H)-dione], for which the Emax is 235% and the half-maximal activity concentration (AC50) stood at 11.7 µM.
As to `C=CCn1c2ccccc2c(=O)c2c(=O)n(C3CCCC3)c(C(C)C)nc21` [Example 2.1, 10-allyl-3-cyclopentyl-2-isopropylpyrimido[4,5-b]quinoline-4,5(3H,10H)-dione], the Emax is 102% and the AC50 was determined as 21 µM.
Turning to `CC(C)c1nc2[nH]c3ccccc3c(=O)c2c(=O)n1C1CCCC1` [Example 2.2, 3-cyclopentyl-2-isopropylpyrimido[4,5-b]quinoline-4,5(3H,10H)-dione], the Emax turned out to be 235% and the AC50 is 2.1 µM.
The corresponding values for `CCn1c2ccccc2c(=O)c2c(=O)n(C3CCCC3)c(C(C)C)nc21` [Example 2.3, 3-cyclopentyl-10-ethyl-2-isopropylpyrimido[4,5-b]quinoline-4,5(3H,10H)-dione] are 101% and 21.6 µM.
The corresponding values for `CCC(C)c1nc2c(c(=O)c3ccccc3n2C)c(=O)n1C1CCCC1` (stereo not shown) [Example 2.4, 2-(sec-butyl)-3-cyclopentyl-10-methylpyrimido[4,5-b]quinoline-4,5(3H,10H)-dione] are 258% and 6.1 µM.
On to `CC(C)Cc1nc2c(c(=O)c3ccccc3n2C)c(=O)n1C1CCCC1` [Example 2.5, 3-cyclopentyl-2-isobutyl-10-methylpyrimido[4,5-b]quinoline-4,5(3H,10H)-dione], for which the Emax was 243% and the activity was half-maximal at 8.1 µM (AC50).
Turning to `Cn1c2ccccc2c(=O)c2c(=O)n(C3CCCC3)c(C(C)(C)C)nc21` [Example 2.6, 2-(tert-butyl)-3-cyclopentyl-10-methylpyrimido[4,5-b]quinoline-4,5(3H,10H)-dione], the Emax at 25 µM amounted to 127%.
The same measure, in the same setting: as for `CC(C)c1nc2c(c(=O)c3ccccc3n2C)c(=O)n1C1CCOCC1` [Example 2.7, 2-isopropyl-10-methyl-3-(tetrahydro-2H-pyran-4-yl)pyrimido[4,5-b]quinoline-4,5(3H,10H)-dione], the figure is 151%.
As for `CC(C)c1nc2c(c(=O)c3ccccc3n2C)c(=O)n1N1CCCCC1` [Example 2.8, 2-isopropyl-10-methyl-3-(piperidin-1-yl)pyrimido[4,5-b]quinoline-4,5(3H,10H)-dione], the Emax is 264% and the AC50 amounted to 10.6 µM.
In the same order, the values of `COc1cccc2c(=O)c3c(=O)n(C4CCCC4)c(C(C)C)nc3n(C)c12` [Example 2.9, 3-cyclopentyl-2-isopropyl-9-methoxy-10-methylpyrimido[4,5-b]quinoline-4,5(3H,10H)-dione] are 73% and 18.4 µM.
In the same order, the values of `COc1ccc2c(c1)c(=O)c1c(=O)n(C3CCCC3)c(C(C)C)nc1n2C` [Example 2.10, 3-cyclopentyl-2-isopropyl-7-methoxy-10-methylpyrimido[4,5-b]quinoline-4,5(3H,10H)-dione] are 25% and 25 µM.
The corresponding values for `CC(C)c1nc2c(c(=O)c3cc(Cl)ccc3n2C)c(=O)n1C1CCCC1` [Example 2.11, 7-chloro-3-cyclopentyl-2-isopropyl-10-methylpyrimido[4,5-b]quinoline-4,5(3H,10H)-dione] are 192% and 10.7 µM.
Take `CC(C)c1nc2c(c(=O)c3cc(Br)ccc3n2C)c(=O)n1C1CCCC1` [Example 2.12, 7-bromo-3-cyclopentyl-2-isopropyl-10-methylpyrimido[4,5-b]quinoline-4,5(3H,10H)-dione]: the Emax at 25 µM turned out to be 23%.
Turning to `C#Cc1ccc2c(c1)c(=O)c1c(=O)n(C3CCCC3)c(C(C)C)nc1n2C` [Example 2.13, 3-cyclopentyl-7-ethynyl-2-isopropyl-10-methylpyrimido[4,5-b]quinoline-4,5(3H,10H)-dione], the Emax stood at 11%.
Regarding `CC(C)c1nc2c(c(=O)c3cc(C#N)ccc3n2C)c(=O)n1C1CCCC1` [Example 2.14, 3-cyclopentyl-2-isopropyl-10-methyl-4,5-dioxo-3,4,5,10-tetrahydropyrimido[4,5-b]quinoline-7-carbonitrile], the Emax was found to be 9% and the activity was half-maximal at 6.6 µM (AC50).
Take `CC(C)c1nc2c(c(=O)c3ccccc3n2C)c(=O)n1C1CCCC1` [Example 2.15, 3-cyclopentyl-2-isopropyl-10-methylpyrimido[4,5-b]quinoline-4,5(3H,10H)-dione]: the Emax worked out at 275% and the AC50 turned out to be 3.8 µM.
In the case of `Cn1c2ccccc2c(=O)c2c(=O)n(C3CCCCC3)c(-c3ccccc3)nc21` [Example 2.16, 3-cyclohexyl-10-methyl-2-phenylpyrimido[4,5-b]quinoline-4,5(3H,10H)-dione], the Emax turned out to be 312% and half-maximal activity (AC50) was put at 8.6 µM.
`CCCCCc1nc2c(c(=O)c3ccccc3n2C)c(=O)n1C1CCCC1` [Example 2.18, 3-cyclopentyl-10-methyl-2-pentylpyrimido[4,5-b]quinoline-4,5(3H,10H)-dione]: the Emax came out at 222% and half-maximal activity (AC50) was put at 9.9 µM.
Regarding `Cn1c2ccccc2c(=O)c2c(=O)n(C3CCCCC3)c(-c3cccc([N+](=O)[O-])c3)nc21` [Example 2.19, 3-cyclohexyl-10-methyl-2-(3-nitrophenyl)pyrimido[4,5-b]quinoline-4,5(3H,10H)-dione], the Emax is 248% and the AC50 worked out at 11.6 µM.
The corresponding values for `CCCc1nc2c(c(=O)c3ccccc3n2C)c(=O)n1C1CCCC1` [Example 2.21, 3-cyclopentyl-10-methyl-2-propylpyrimido[4,5-b]quinoline-4,5(3H,10H)-dione] are 214% and 7.6 µM.
In the same order, the values of `Cn1c2ccccc2c(=O)c2c(=O)n(C3CCCCCC3)c(-c3cccs3)nc21` [Example 2.22, 3-cycloheptyl-10-methyl-2-(thiophen-2-yl)pyrimido[4,5-b]quinoline-4,5(3H,10H)-dione] are 197% and 11 µM.
Consider `CCCc1nc2c(c(=O)c3ccccc3n2C)c(=O)n1C1CCCCCC1` [Example 2.23, 3-cycloheptyl-10-methyl-2-propylpyrimido[4,5-b]quinoline-4,5(3H,10H)-dione], for which the Emax amounted to 181% and the half-maximal activity concentration (AC50) worked out at 5 µM.
Regarding `CCCc1nc2c(c(=O)c3ccccc3n2C)c(=O)n1C1CCCCC1` [Example 2.24, 3-cyclohexyl-10-methyl-2-propylpyrimido[4,5-b]quinoline-4,5(3H,10H)-dione], the Emax was 170% and the concentration at half-maximal activity (AC50) stood at 2.3 µM.
The corresponding values for `CCCCCc1nc2c(c(=O)c3ccccc3n2C)c(=O)n1C1CCCCCC1` [Example 2.25, 3-cycloheptyl-10-methyl-2-pentylpyrimido[4,5-b]quinoline-4,5(3H,10H)-dione] are 149% and 6.4 µM.
